The values below are quoted from earlier work in PubChem BioAssay AID1259409 (Chemical Carcinogenesis Research Information System (CCRIS), 2018).

Structures are written as SMILES.

The series concerns rodent chemically induced tumor inhibition, incidence and multiplicity. Nature of the series: CCRIS tumor inhibitor studies. As to conditions: Carcinogen: 4-(METHYLNITROSAMINO)-1-(3-PYRIDYL)-1-BUTANONE, 64091-91-4, Promoter: NONE USED; for tumour outcome (control, treated, inhibition, significance): Dose [Inhibitor]: 0. An excerpt: The CCRIS database contains chemical records with carcinogenicity, mutagenicity, tumor promotion, and tumor inhibition test results. It was developed by the National Cancer Institute (NCI). Data are derived from studies cited in primary journals, current awareness tools, NCI reports, and other sources. Test results have been reviewed by experts in carcinogenesis and mutagenesis.
CCRIS provides historical information from the years 1985 - 2011. It is no longer updated.
This is an archive assay for CCRIS tumor inhibitor studies.

For the compound `S=C=NCCc1ccccc1`, the “tumour outcome (control, treated, inhibition, significance)” value by setting is: (3 UMOL/G OF DIET FOR 112 WK BEGINNING 1 WK PRIOR TO CARCINOGEN TREATMENT (STUDY DURATION: 112 WK), Route [Inhibitor]: ORAL, Species: RAT, Strain/Sex: F344/MALE, Target Tissue: Type of Lesion: PANCREAS (EXOCRINE): MALIGNANT TUMOR, Dose [Carcinogen]: 2 PPM IN DRINKING WATER FOR 111 WK) 4/52 (8%), 0/59 (0%), 100%, p=0.005; (5 UMOL 1/D FOR 4 D ADMINISTERED PRIOR TO CARCINOGEN DOSE (STUDY DURATION: 116 D), Route [Inhibitor]: GAVAGE, Species: MOUSE, Strain/Sex: STRAIN-A, Target Tissue: Type of Lesion: LUNG: ADENOMA, Dose [Carcinogen]: 10 UMOL IN SALINE ADMINISTERED 2 HR POST LAST AGENT DOSE) 100%, 93%, 7%, not calculated; (5 UMOL 1/D FOR 4 D ADMINISTERED PRIOR TO CARCINOGEN TREATMENT (STUDY DURATION: 116 D), Route [Inhibitor]: GAVAGE, Species: MOUSE, Strain/Sex: STRAIN A, Target Tissue: Type of Lesion: LUNG: ADENOMA, Dose [Carcinogen]: 10 UMOL ONCE 2 HR AFTER FINAL DOSE OF INHIBITOR) 100%, 93%, 7%, not significant; (5 UMOL 1/D FOR 4 DAYS ADMINISTERED PRIOR TO CARCINOGEN TREATMENT (STUDY DURATION: 116 D), Route [Inhibitor]: GAVAGE, Species: MOUSE, Strain/Sex: STRAIN-A, Target Tissue: Type of Lesion: LUNG: ADENOMA, Dose [Carcinogen]: 10 UMOL ONCE 2 HR AFTER FINAL DOSE OF INHIBITOR) 100%, 89%, 11%, not significant; (5 UMOL/D ADMINISTERED TO MICE HETEROZYGOUS (P53+/-) FOR P53 ALLELES FOR 4 CONSECUTIVE DAYS PRIOR TO CARCINOGEN DOSE (, Route [Inhibitor]: GAVAGE, Species: MOUSE, Strain/Sex: (A/J X TSG-P53)F1/FEMALE, Target Tissue: Type of Lesion: LUNG: ADENOMA, Dose [Carcinogen]: 10 UMOL ONCE) 100%, 40%, 60%, p<0.0001; (5 UMOL/D ADMINISTERED TO MICE HOMOZYGOUS (P53+/+) FOR P53 ALLELES FOR 4 CONSECUTIVE DAYS PRIOR TO CARCINOGEN DOSE (ST, Route [Inhibitor]: GAVAGE, Species: MOUSE, Strain/Sex: (A/J X TSG-P53)F1/FEMALE, Target Tissue: Type of Lesion: LUNG: ADENOMA, Dose [Carcinogen]: 10 UMOL ONCE) 100%, 36%, 64%, p<0.0001. Moreover, the “tumour outcome (control, treated, inhibition, significance)” value reads like this: (5 UMOL/D FOR 4 CONSECUTIVE DAYS (STUDY DURATION: 17 WK), Route [Inhibitor]: GAVAGE, Species: MOUSE, Strain/Sex: STRAIN-A/FEMALE, Target Tissue: Type of Lesion: LUNG: ADENOMA, Dose [Carcinogen]: 10 UMOL ONCE 2 HR POST LAST AGENT DOSE) 100%, 89%, 11%, not calculated; (5 UMOL/D FOR 4 CONSECUTIVE DAYS PRIOR TO CARCINOGEN DOSE (STUDY DURATION: 18 WK), Route [Inhibitor]: GAVAGE, Species: MOUSE, Strain/Sex: STRAIN-A/FEMALE, Target Tissue: Type of Lesion: LUNG: ADENOMA, Dose [Carcinogen]: 10 UMOL ONCE) 100%, 100%, 0%, not significant; (25 UMOL 1/D FOR 4 D ADMINISTERED PRIOR TO CARCINOGEN TREATMENT (STUDY DURATION: 116 D), Route [Inhibitor]: GAVAGE, Species: MOUSE, Strain/Sex: STRAIN-A, Target Tissue: Type of Lesion: LUNG: ADENOMA, Dose [Carcinogen]: 10 UMOL ONCE 2 HR AFTER FINAL DOSE OF INHIBITOR) 100%, 30%, 70%, p<0.01; (25 UMOL/D FOR 4 CONSECUTIVE DAYS (STUDY DURATION: 17 WK), Route [Inhibitor]: GAVAGE, Species: MOUSE, Strain/Sex: STRAIN-A/FEMALE, Target Tissue: Type of Lesion: LUNG: ADENOMA, Dose [Carcinogen]: 10 UMOL ONCE 2 HR POST LAST AGENT DOSE) 100%, 30%, 70%, p<0.01; (652 PPM IN DIET FOR 22 WK BEGINNING 1 WK PRIOR TO CARCINOGEN TREATMENT (STUDY DURATION: 98 WK), Route [Inhibitor]: ORAL, Species: RAT, Strain/Sex: F344/MALE, Target Tissue: Type of Lesion: LUNG: TUMOR, Dose [Carcinogen]: 1.5 MG/KG BW 3/WK FOR 20 WK) 22/33 (67%), 6/36 (17%), 75%, p<0.001; (652 PPM IN DIET FOR 22 WK BEGINNING 1 WK PRIOR TO CARCINOGEN TREATMENT (STUDY DURATION: 98 WK), Route [Inhibitor]: ORAL, Species: RAT, Strain/Sex: F344/MALE, Target Tissue: Type of Lesion: NASAL CAVITY: TUMOR, Dose [Carcinogen]: 1.5 MG/KG BW 3/WK FOR 20 WK) 28/36 (78%), 17/36 (47%), 40%, not significant. The “tumour outcome (control, treated, inhibition, significance)” value runs as follows: (1304 PPM IN DIET FOR 22 WK BEGINNING 1 WK PRIOR TO CARCINOGEN DOSE (STUDY DURATION: 98 WK), Route [Inhibitor]: ORAL, Species: RAT, Strain/Sex: F344/MALE, Target Tissue: Type of Lesion: NASAL CAVITY: TUMOR, Dose [Carcinogen]: 1.5 MG/KG BW 3/WK FOR 20 WK) 28/36 (78%), 21/36 (58%), 26%, not significant; (1304 PPM IN DIET FOR 22 WK BEGINNING 1 WK PRIOR TO CARCINOGEN TREATMENT (STUDY DURATION: 98 WK), Route [Inhibitor]: ORAL, Species: RAT, Strain/Sex: F344/MALE, Target Tissue: Type of Lesion: LUNG: TUMOR, Dose [Carcinogen]: 1.5 MG/KG BW 3/WK FOR 20 WK) 22/33 (67%), 3/36 (8%), 88%, p<0.0001. For the setting “Dose [Inhibitor]: 3 UMOL/G DIET BEGINNING 1 WK PRIOR TO FIRST CARCINOGEN DOSE (STUDY DURATION: 104 WK), Route [Inhibitor]: ORAL, Species: RAT, Strain/Sex: F344/MALE, Target Tissue: Type of Lesion: ADRENAL GLAND: ADENOMA, Dose [Carcinogen]: 1.76 MG/KG 3/WK FOR 20 WK”, the outcome is 0/40 (0%), 2/40 (5%), -5%, not calculated.
